Test results as given in patent US8735609B2, “Bryostatin analogues, synthetic methods and uses” (The Board of Trustees of the Leland Stanford Junior …, priority 2007, dated 2014).

Tests used:
MALME-3M = experiment: NCI human cancer cell line growth inhibition: MALME-3M (Melanoma); format: cell-based
UACC-257 = experiment: NCI human cancer cell line growth inhibition: UACC-257 (Melanoma); format: cell-based
PC-3 = experiment: NCI human cancer cell line growth inhibition: PC-3 (Prostate); format: cell-based
U251 = experiment: NCI human cancer cell line growth inhibition: U251 (CNS); format: cell-based
NCI-H226 = format: cell-based, human; conditions: NCI-H226, NSC Lung
OVCAR-4 = experiment: NCI human cancer cell line growth inhibition: OVCAR-4 (Ovarian); format: cell-based
SK-OV-3 = experiment: NCI human cancer cell line growth inhibition: SK-OV-3 (Ovarian); format: cell-based
ACHN = experiment: NCI human cancer cell line growth inhibition: ACHN (Renal); format: cell-based
NCI-H522 = format: cell-based, human; conditions: NCI-H522, NSC Lung
MDA-MB-231/ATCC = experiment: NCI human cancer cell line growth inhibition: MDA-MB-231/ATCC (Breast); format: cell-based
OVCAR-5 = experiment: NCI human cancer cell line growth inhibition: OVCAR-5 (Ovarian); format: cell-based
IGROVI = experiment: NCI human cancer cell line growth inhibition: IGROVI (Ovarian); format: cell-based
OVCAR-3 = experiment: NCI human cancer cell line growth inhibition: OVCAR-3 (Ovarian); format: cell-based
T-47D = experiment: NCI human cancer cell line growth inhibition: T-47D (Breast); format: cell-based
UACC-62 = experiment: NCI human cancer cell line growth inhibition: UACC-62 (Melanoma); format: cell-based
HL-60(TB) = experiment: cells; format: cell-based, human
MDA-N = experiment: NCI human cancer cell line growth inhibition: MDA-N (Breast); format: cell-based
MCF7 = experiment: NCI human cancer cell line growth inhibition: MCF7 (Breast); format: cell-based
KM12 = experiment: NCI human cancer cell line growth inhibition: KM12 (Colon); format: cell-based
RPMI-8226 = experiment: NCI human cancer cell line growth inhibition: RPMI-8226 (Leukemia); format: cell-based
LOX IMVI = experiment: NCI human cancer cell line growth inhibition: LOX IMVI (Melanoma); format: cell-based
HOP-62 = experiment: NCI human cancer cell line growth inhibition: HOP-62 (NSC Lung); format: cell-based
OVCAR-8 = experiment: NCI human cancer cell line growth inhibition: OVCAR-8 (Ovarian); format: cell-based
SF-539 = experiment: NCI human cancer cell line growth inhibition: SF-539 (CNS); format: cell-based
SW-620 = experiment: NCI human cancer cell line growth inhibition: SW-620 (Colon); format: cell-based
SF-268 = experiment: NCI human cancer cell line growth inhibition: SF-268 (CNS); format: cell-based
BT-549 = experiment: NCI human cancer cell line growth inhibition: BT-549 (Breast); format: cell-based
SK-MEL-28 = experiment: NCI human cancer cell line growth inhibition: SK-MEL-28 (Melanoma); format: cell-based
SNB-75 = experiment: NCI human cancer cell line growth inhibition: SNB-75 (CNS); format: cell-based
NCI-H23 = format: cell-based, human; conditions: NCI-H23, NSC Lung
MI4 = experiment: NCI human cancer cell line growth inhibition: MI4 (Melanoma); format: cell-based
CAKI-1 = experiment: NCI human cancer cell line growth inhibition: CAKI-1 (Renal); format: cell-based
786-0 = experiment: NCI human cancer cell line growth inhibition: 786-0 (Renal); format: cell-based
UO-31 = experiment: NCI human cancer cell line growth inhibition: UO-31 (Renal); format: cell-based
SK-MEL-5 = experiment: NCI human cancer cell line growth inhibition: SK-MEL-5 (Melanoma); format: cell-based
TK-10 = experiment: NCI human cancer cell line growth inhibition: TK-10 (Renal); format: cell-based
K-562 = experiment: NCI human cancer cell line growth inhibition: K-562 (Leukemia); format: cell-based
A549/ATCC = experiment: NCI human cancer cell line growth inhibition: A549/ATCC (NSC Lung); format: cell-based
SK-MEL-2 = experiment: NCI human cancer cell line growth inhibition: SK-MEL-2 (Melanoma); format: cell-based
SN12C = experiment: NCI human cancer cell line growth inhibition: SN12C (Renal); format: cell-based
CCRF-CEM = experiment: NCI human cancer cell line growth inhibition: CCRF-CEM (Leukemia); format: cell-based
MOLT-4 = experiment: NCI human cancer cell line growth inhibition: MOLT-4 (Leukemia); format: cell-based
HCT-15 = experiment: NCI human cancer cell line growth inhibition: HCT-15 (Colon); format: cell-based
SF-295 = experiment: NCI human cancer cell line growth inhibition: SF-295 (CNS); format: cell-based
HCC-2998 = experiment: NCI human cancer cell line growth inhibition: HCC-2998 (Colon); format: cell-based
NCI/ADR-RES = format: cell-based, human; conditions: Breast
HCT-116 = experiment: NCI human cancer cell line growth inhibition: HCT-116 (Colon); format: cell-based
SNB-19 = experiment: NCI human cancer cell line growth inhibition: SNB-19 (CNS); format: cell-based
HT29 = experiment: NCI human cancer cell line growth inhibition: HT29 (Colon); format: cell-based
NCI-H460 = format: cell-based, human; conditions: NCI-H460, NSC Lung
A498 = experiment: NCI human cancer cell line growth inhibition: A498 (Renal); format: cell-based
HOP-92 = experiment: NCI human cancer cell line growth inhibition: HOP-92 (NSC Lung); format: cell-based
SR = experiment: NCI human cancer cell line growth inhibition: SR (Leukemia); format: cell-based
COLO 205 = experiment: NCI human cancer cell line growth inhibition: COLO 205 (Colon); format: cell-based
RXF-393 = experiment: NCI human cancer cell line growth inhibition: RXF-393 (Renal); format: cell-based
HS 578T = experiment: NCI human cancer cell line growth inhibition: HS 578T (Breast); format: cell-based
MDA-MB-435 = experiment: NCI human cancer cell line growth inhibition: MDA-MB-435 (Breast); format: cell-based
EKVX = experiment: NCI human cancer cell line growth inhibition: EKVX (NSC Lung); format: cell-based
DU-145 = experiment: NCI human cancer cell line growth inhibition: DU-145 (Prostate); format: cell-based

CCC/C=C/C=C/C(=O)O[C@H]1/C(=C/C(=O)OC)C[C@H]2C[C@H]([C@@H](C)O)OC(=O)C[C@H](O)C[C@@H]3C[C@H](OC(C)=O)C(C)(C)[C@](O)(C[C@@H]4C/C(=C/C(=O)OC)C[C@H](/C=C/C(C)(C)[C@]1(O)O2)O4)O3 [Bryo-1, Bryostatin-1, reference compound]
Growth inhibition (GI50) (MALME-3M): −5.20 log of molar concentration | Growth inhibition (GI50) (UACC-257): −5.10 log of molar concentration | Growth inhibition (GI50) (PC-3): −5.30 log of molar concentration | Growth inhibition (GI50) (U251): −5.10 log of molar concentration | Growth inhibition (GI50) (NCI-H226): >−5 log of molar concentration | Growth inhibition (GI50) (OVCAR-4): −5.50 log of molar concentration | Growth inhibition (GI50) (SK-OV-3): −5.10 log of molar concentration | Growth inhibition (GI50) (ACHN): −5.50 log of molar concentration | Growth inhibition (GI50) (NCI-H522): >−5 log of molar concentration | Growth inhibition (GI50) (MDA-MB-231/ATCC): −5.20 log of molar concentration | Growth inhibition (GI50) (OVCAR-5): >−5 log of molar concentration | Growth inhibition (GI50) (IGROVI): −5.30 log of molar concentration | Growth inhibition (GI50) (OVCAR-3): −5.10 log of molar concentration | Growth inhibition (GI50) (T-47D): −5.20 log of molar concentration | Growth inhibition (GI50) (UACC-62): −5.30 log of molar concentration | Growth inhibition (GI50) (HL-60(TB)): −5.70 log of molar concentration | Growth inhibition (GI50) (MDA-N): −5.10 log of molar concentration | Growth inhibition (GI50) (MCF7): −5.20 log of molar concentration | Growth inhibition (GI50) (KM12): −5.20 log of molar concentration | Growth inhibition (GI50) (RPMI-8226): >−5 log of molar concentration | Growth inhibition (GI50) (LOX IMVI): −5.10 log of molar concentration | Growth inhibition (GI50) (HOP-62): >−5 log of molar concentration | Growth inhibition (GI50) (OVCAR-8): −5.10 log of molar concentration | Growth inhibition (GI50) (SF-539): >−5 log of molar concentration | Growth inhibition (GI50) (SW-620): −5.50 log of molar concentration | Growth inhibition (GI50) (SF-268): −5.10 log of molar concentration | Growth inhibition (GI50) (BT-549): −5.10 log of molar concentration | Growth inhibition (GI50) (SK-MEL-28): −5.10 log of molar concentration | Growth inhibition (GI50) (SNB-75): −5.50 log of molar concentration | Growth inhibition (GI50) (NCI-H23): >−5 log of molar concentration | Growth inhibition (GI50) (MI4): >−5 log of molar concentration | Growth inhibition (GI50) (CAKI-1): −5.40 log of molar concentration | Growth inhibition (GI50) (786-0): −5.20 log of molar concentration | Growth inhibition (GI50) (UO-31): −5.60 log of molar concentration | Growth inhibition (GI50) (SK-MEL-5): −5.70 log of molar concentration | Growth inhibition (GI50) (TK-10): >−5 log of molar concentration | Growth inhibition (GI50) (K-562): −5.40 log of molar concentration | Growth inhibition (GI50) (A549/ATCC): −5.20 log of molar concentration | Growth inhibition (GI50) (SK-MEL-2): −5.20 log of molar concentration | Growth inhibition (GI50) (SN12C): −5.10 log of molar concentration | Growth inhibition (GI50) (CCRF-CEM): −5.30 log of molar concentration | Growth inhibition (GI50) (MOLT-4): −5.50 log of molar concentration | Growth inhibition (GI50) (HCT-15): >−5 log of molar concentration | Growth inhibition (GI50) (SF-295): −5.20 log of molar concentration | Growth inhibition (GI50) (HCC-2998): −5.30 log of molar concentration | Growth inhibition (GI50) (NCI/ADR-RES): >−5 log of molar concentration | Growth inhibition (GI50) (HCT-116): −5.30 log of molar concentration | Growth inhibition (GI50) (SNB-19): >−5 log of molar concentration | Growth inhibition (GI50) (HT29): −5.30 log of molar concentration | Growth inhibition (GI50) (NCI-H460): −5.60 log of molar concentration | Growth inhibition (GI50) (A498): >−5 log of molar concentration | Growth inhibition (GI50) (HOP-92): −5.30 log of molar concentration | Growth inhibition (GI50) (SR): >−5 log of molar concentration | Growth inhibition (GI50) (COLO 205): −5.40 log of molar concentration | Growth inhibition (GI50) (RXF-393): −5.30 log of molar concentration | Growth inhibition (GI50) (HS 578T): −5.2 log of molar concentration | Growth inhibition (GI50) (MDA-MB-435): −5.10 log of molar concentration | Growth inhibition (GI50) (EKVX): −5.30 log of molar concentration | Growth inhibition (GI50) (DU-145): >−5 log of molar concentration
